Results on eight compounds are retold here after PubChem BioAssay AID214 (DTP/NCI, 2004).

Values joined by “and” are separate entries in the source; they are usually repeats but may differ in a detail not shown here. Equal entries are not always repeated. Records with an inconclusive call do not appear.

In this assay the test system is B6C3F1 mice, colon carcinoma 38 s.c., T/C. The assay is described as follows: NCI In Vivo Anticancer Drug Screen. Data for tumor model Colon Carcinoma 38 (subcutaneous) in B6C3F1 mice. As for the experimental part: The antitumor activity of compounds was measured in mice bearing transplantable tumors. Survival or tumor size were measured and the results are expressed as the measurement made in the treated group (T) divided by the measurement made in the vehicle treated control group (C). The tumor model used in this assay is Colon Carcinoma 38 (subcutaneous) in B6C3F1 mice

Setting [1] is: endpoint: median tumor weight (est.), dose: 100.0 mg/kg/injection, schedule: Q07DX002 (ip), vehicle: saline with Tween-80, higher = larger tumour.
Where [2] appears, read: endpoint: median tumor weight (est.), dose: 200.0 mg/kg/injection, schedule: Q07DX002 (ip), vehicle: saline with Tween-80, higher = larger tumour.
Where [3] appears, read: endpoint: median tumor weight (est.), dose: 400.0 mg/kg/injection, schedule: Q07DX002 (ip), vehicle: saline with Tween-80, higher = larger tumour.
Setting [4] is: endpoint: median tumor weight (est.), dose: 200.0 mg/kg/injection, schedule: Q07DX002 (ip), vehicle: saline, higher = larger tumour.

As to `CC(=O)N(C)O`, the T/C by setting is: under setting [1], 124 % of control; under setting [2], 116 % of control; under setting [3], 91 % of control; (endpoint: median tumor weight (est.), dose: 800.0 mg/kg/injection, schedule: Q07DX002 (ip), vehicle: saline with Tween-80, higher = larger tumour) 101 % of control.

With `O=C(O)CC(=O)O.[NH-]CC[NH-].[Pt+2]`, the T/C is 59 % of control (endpoint: median tumor weight (est.), dose: 28.13 mg/kg/injection, schedule: Q07DX002 (ip), vehicle: dextrose, higher = larger tumour) and 81 % of control (endpoint: median tumor weight (est.), dose: 56.25 mg/kg/injection, schedule: Q07DX002 (ip), vehicle: dextrose, higher = larger tumour).

Turning to `Cc1ccc2nc(-c3ccc4nc(-c5ccc(N=Nc6ccc(-c7nc8ccc(-c9nc%10ccc(C)c(S(=O)(=O)O)c%10s9)cc8s7)cc6)cc5)sc4c3)sc2c1S(=O)(=O)O`, the T/C reads like this: (endpoint: median tumor weight (est.), dose: 50.0 mg/kg/injection, schedule: Q07DX002 (ip), vehicle: saline, higher = larger tumour) 72 % of control; (endpoint: median tumor weight (est.), dose: 100.0 mg/kg/injection, schedule: Q07DX002 (ip), vehicle: saline, higher = larger tumour) 101 % of control; under setting [4], 84 % of control; (endpoint: median tumor weight (est.), dose: 400.0 mg/kg/injection, schedule: Q07DX002 (ip), vehicle: saline, higher = larger tumour) 82 % of control.

In the case of `Nc1nc(N)c2cc(S(=O)(=O)c3ccccc3)ccc2n1`, the T/C was 62 % of control (endpoint: median tumor weight (est.), dose: 50.0 mg/kg/injection, schedule: Q07DX002 (ip), vehicle: saline with Tween-80, higher = larger tumour); 45 % of control under setting [1]; 44 % of control under setting [2]; 24 % of control under setting [3].

As for `CCN(CC)CCOC(=O)Cc1cccc2c(=O)cc(-c3ccccc3)oc12`, the T/C was 101 % of control (endpoint: median survival time, dose: 3.12 mg/kg/injection, schedule: Q01DX001 (iv), vehicle: saline, higher = longer survival); 102 % of control (endpoint: median survival time, dose: 3.12 mg/kg/injection, schedule: Q07DX002 (iv), vehicle: saline, higher = longer survival); 102 % of control (endpoint: median survival time, dose: 6.25 mg/kg/injection, schedule: Q01DX001 (iv), vehicle: saline, higher = longer survival); 106 % of control (endpoint: median survival time, dose: 6.25 mg/kg/injection, schedule: Q07DX002 (iv), vehicle: saline, higher = longer survival); 92 % of control (endpoint: median survival time, dose: 15.82 mg/kg/injection, schedule: Q07DX002 (iv), vehicle: saline, higher = longer survival); 101 % of control (endpoint: median survival time, dose: 21.09 mg/kg/injection, schedule: Q01DX001 (iv), vehicle: saline, higher = longer survival). Besides, the T/C was 96 % of control (endpoint: median survival time, dose: 21.09 mg/kg/injection, schedule: Q07DX002 (iv), vehicle: saline, higher = longer survival); 87 % of control (endpoint: median survival time, dose: 25.0 mg/kg/injection, schedule: Q07DX002 (iv), vehicle: saline, higher = longer survival); 100 % of control (endpoint: median survival time, dose: 28.13 mg/kg/injection, schedule: Q01DX001 (iv), vehicle: saline, higher = longer survival); 121 % of control (endpoint: median survival time, dose: 28.13 mg/kg/injection, schedule: Q07DX002 (iv), vehicle: saline, higher = longer survival); 92 % of control (endpoint: median survival time, dose: 37.5 mg/kg/injection, schedule: Q01DX001 (iv), vehicle: saline, higher = longer survival); 110 % of control (endpoint: median survival time, dose: 37.5 mg/kg/injection, schedule: Q07DX002 (iv), vehicle: saline, higher = longer survival). Also, the T/C is, setting by setting: (endpoint: median survival time, dose: 50.0 mg/kg/injection, schedule: Q01DX001 (iv), vehicle: saline, higher = longer survival) 96 % of control; (endpoint: median survival time, dose: 112.5 mg/kg/injection, schedule: Q01DX001 (ip), vehicle: saline, higher = longer survival) 89 % of control; (endpoint: median survival time, dose: 112.5 mg/kg/injection, schedule: Q07DX002 (ip), vehicle: saline, higher = longer survival) 90 % of control and 120 % of control; (endpoint: median survival time, dose: 150.0 mg/kg/injection, schedule: Q01DX001 (ip), vehicle: saline, higher = longer survival) 96 % of control and 99 % of control; (endpoint: median survival time, dose: 150.0 mg/kg/injection, schedule: Q07DX002 (ip), vehicle: saline, higher = longer survival) 167 % of control and 218 % of control; (endpoint: median survival time, dose: 200.0 mg/kg/injection, schedule: Q07DX002 (ip), vehicle: saline, higher = longer survival) 220 % of control and 238 % of control. In addition, the T/C by setting is: (endpoint: median survival time, dose: 266.7 mg/kg/injection, schedule: Q01DX001 (ip), vehicle: saline, higher = longer survival) 171 % of control and 176 % of control; (endpoint: median survival time, dose: 266.7 mg/kg/injection, schedule: Q07DX002 (ip), vehicle: saline, higher = longer survival) 220 % of control and 238 % of control; (endpoint: median survival time, dose: 355.6 mg/kg/injection, schedule: Q01DX001 (ip), vehicle: saline, higher = longer survival) 220 % of control and 232 % of control; (endpoint: median tumor weight (est.), dose: 21.09 mg/kg/injection, schedule: Q07DX002 (iv), vehicle: saline, higher = larger tumour) 86 % of control; (endpoint: median tumor weight (est.), dose: 26.7 mg/kg/injection, schedule: Q03HX024 (ip), vehicle: saline, higher = larger tumour) 115 % of control; (endpoint: median tumor weight (est.), dose: 28.13 mg/kg/injection, schedule: Q01DX001 (iv), vehicle: saline, higher = larger tumour) 77 % of control and 89 % of control. In addition, the T/C reads like this: (endpoint: median tumor weight (est.), dose: 35.6 mg/kg/injection, schedule: Q03HX024 (ip), vehicle: saline, higher = larger tumour) 155 % of control; (endpoint: median tumor weight (est.), dose: 35.6 mg/kg/injection, schedule: Q06HX016 (ip), vehicle: saline, higher = larger tumour) 86 % of control; (endpoint: median tumor weight (est.), dose: 37.5 mg/kg/injection, schedule: Q01DX001 (iv), vehicle: saline, higher = larger tumour) 107 % of control; (endpoint: median tumor weight (est.), dose: 47.5 mg/kg/injection, schedule: Q01DX008 (ip), vehicle: saline, higher = larger tumour) 79 % of control; (endpoint: median tumor weight (est.), dose: 47.5 mg/kg/injection, schedule: Q03HX006 (ip), vehicle: saline, higher = larger tumour) 117 % of control; (endpoint: median tumor weight (est.), dose: 47.5 mg/kg/injection, schedule: Q03HX024 (ip), vehicle: saline, higher = larger tumour) 83 % of control. The T/C is 75 % of control (endpoint: median tumor weight (est.), dose: 47.5 mg/kg/injection, schedule: Q06HX016 (ip), vehicle: saline, higher = larger tumour); 50 % of control (endpoint: median tumor weight (est.), dose: 50.0 mg/kg/injection, schedule: Q01DX001 (iv), vehicle: saline, higher = larger tumour); 63 % of control (endpoint: median tumor weight (est.), dose: 63.3 mg/kg/injection, schedule: Q03HX006 (ip), vehicle: saline, higher = larger tumour); 93 % of control (endpoint: median tumor weight (est.), dose: 63.3 mg/kg/injection, schedule: Q06HX016 (ip), vehicle: saline, higher = larger tumour); 111 % of control (endpoint: median tumor weight (est.), dose: 84.4 mg/kg/injection, schedule: Q01DX008 (ip), vehicle: saline, higher = larger tumour); 63 % of control (endpoint: median tumor weight (est.), dose: 84.4 mg/kg/injection, schedule: Q03HX006 (ip), vehicle: saline, higher = larger tumour). Besides, the T/C (endpoint: median tumor weight (est.), dose: 84.4 mg/kg/injection, schedule: Q06HX004 (ip), vehicle: saline, higher = larger tumour) is 75 % of control; the T/C (endpoint: median tumor weight (est.), dose: 84.4 mg/kg/injection, schedule: Q06HX016 (ip), vehicle: saline, higher = larger tumour) was 63 % of control; the T/C (endpoint: median tumor weight (est.), dose: 84.4 mg/kg/injection, schedule: Q07DX002 (ip), vehicle: saline, higher = larger tumour) is 60 % of control; the T/C (endpoint: median tumor weight (est.), dose: 112.5 mg/kg/injection, schedule: Q01DX008 (ip), vehicle: saline, higher = larger tumour) was 73 % of control; the T/C (endpoint: median tumor weight (est.), dose: 112.5 mg/kg/injection, schedule: Q03HX006 (ip), vehicle: saline, higher = larger tumour) was 18 % of control; the T/C (endpoint: median tumor weight (est.), dose: 112.5 mg/kg/injection, schedule: Q06HX004 (ip), vehicle: saline, higher = larger tumour) was 60 % of control. In addition, the T/C was 54 % of control (endpoint: median tumor weight (est.), dose: 150.0 mg/kg/injection, schedule: Q06HX004 (ip), vehicle: saline, higher = larger tumour); 20 % of control and 22 % of control (endpoint: median tumor weight (est.), dose: 200.0 mg/kg/injection, schedule: Q01DX001 (ip), vehicle: saline, higher = larger tumour); 9 % of control (endpoint: median tumor weight (est.), dose: 200.0 mg/kg/injection, schedule: Q06HX004 (ip), vehicle: saline, higher = larger tumour); 4 % of control and 9 % of control under setting [4]; 7 % of control and 13 % of control (endpoint: median tumor weight (est.), dose: 266.7 mg/kg/injection, schedule: Q01DX001 (ip), vehicle: saline, higher = larger tumour).

With `Nc1ncn(C2OC(CO)C(O)C2O)c(=O)n1` (stereo not drawn), the T/C was 60 % of control (endpoint: median tumor weight (est.), dose: 4.0 mg/kg/injection, schedule: Q07DX002 (ip), vehicle: saline, higher = larger tumour); 82 % of control (endpoint: median tumor weight (est.), dose: 8.0 mg/kg/injection, schedule: Q07DX002 (ip), vehicle: saline, higher = larger tumour); 33 % of control (endpoint: median tumor weight (est.), dose: 16.0 mg/kg/injection, schedule: Q07DX002 (ip), vehicle: saline, higher = larger tumour); 6 % of control (endpoint: median tumor weight (est.), dose: 32.0 mg/kg/injection, schedule: Q07DX002 (ip), vehicle: saline, higher = larger tumour); 2 % of control (endpoint: median tumor weight (est.), dose: 64.0 mg/kg/injection, schedule: Q07DX002 (ip), vehicle: saline, higher = larger tumour).

On to `C[C@@]1(CO)[C@H](O)CC[C@@]2(C)[C@H]1CC[C@H]1C[C@@H]3C[C@@]12CC[C@@]3(O)COC(=O)CN`, for which the T/C was 61 % of control (endpoint: median tumor weight (est.), dose: 0.4 mg/kg/injection, schedule: Q07DX002 (ip), vehicle: saline + alcohol, higher = larger tumour); 88 % of control (endpoint: median tumor weight (est.), dose: 0.8 mg/kg/injection, schedule: Q07DX002 (ip), vehicle: saline + alcohol, higher = larger tumour); 54 % of control (endpoint: median tumor weight (est.), dose: 1.6 mg/kg/injection, schedule: Q07DX002 (ip), vehicle: saline + alcohol, higher = larger tumour); 63 % of control (endpoint: median tumor weight (est.), dose: 3.2 mg/kg/injection, schedule: Q07DX002 (ip), vehicle: saline + alcohol, higher = larger tumour); 106 % of control (endpoint: median tumor weight (est.), dose: 6.4 mg/kg/injection, schedule: Q07DX002 (ip), vehicle: saline + alcohol, higher = larger tumour).

Turning to `CN(C)C1C(=O)C(C(=O)NP(=O)(NCCCO)N(CCCl)CCCl)=C(O)C2(O)C(=O)C3=C(O)c4c(O)cccc4C(C)(O)C3CC12` (stereo not drawn), the T/C is, setting by setting: under setting [1], 176 % of control; under setting [2], 42 % of control.
